Source: PubChem BioAssay AID1963983 (Molecular Pharmacology Branch, DTP, NCI, 2024)
Blank lines part the entries; values can stand above or below the compound they belong to.

System: 186277-243-T-J2-PDC multi-cell spheroid viability
Test: Anticancer human tumor 186277-243-T-J2-PDC patient-derived colon adenocarcinoma cell line growth inhibition [PI3K]
Details: for viability, T/C: stronger effect = lower value
Text: Combinatorial screen of targeted agents with the PI3K inhibitors inavolisib, alpelisib, duvelisib, and copanlisib in multi-cell type tumor spheroids
A high-throughput screen of multi-cell type tumor spheroids was designed to identify active combinations of targeted small molecules and PI3K pathway inhibitors. Complex spheroids include a stromal component modeled by human endothelial cells (HUVEC) and fibroblasts modeled by human mesenchymal stem cells (MSCs). The concentration ranges selected for each drug and investigational agent were based upon clinically achievable concentrations if the clinical Cmax of the agent was known.
Compounds. The drugs and investigational agents: inavolisib (NSC800729), alpelisib (NSC765974), duvelisib (NSC772469), copanlisib (NSC816437), ipatasertib (NSC767898), afuresertib (NSC778305), talazoparib (NSC767125), sapanisertib (NSC764658), selumetinib (NSC741078), tovorafenib (DAY101, NSC766906), vemurafenib (NSC761431), ravoxertinib (NSC781343), sotorasib (NSC818433), MRTX1133 (NSC 836407), abemaciclib (NSC 768073), palbociclib (NSC758247), venetoclax (NSC 766270), SY5609 (NSC837396), enzalutamide (NSC755605), and darolutamide (NSC825331), were obtained from the National Cancer Institute (NCI) Developmental Therapeutics Program Chemical Repository. The FDA-approved anticancer drug set is available from the NCI Developmental Therapeutics Program. […] The stock solutions were prepared in dimethyl sulfoxide (DMSO, Sigma-Aldrich, St. Louis, MO, cat. D2650) at 800-fold the tested concentration and stored at -70 degrees C prior to their use. All drugs and investigational agents were tested over a range starting from a high concentration at or near the clinical Cmax and decreasing in half-log increments. If the clinical Cmax for an agent had not been determined, the highest concentration tested was 10 microM.
Cell Culture. All cells were maintained in an incubator at 37 degrees C and 5% CO2 with 95% humidity. The PDC lines were cultured according to standard operating procedures established by the NCI PDMR (https://pdmr.cancer.gov/sops/default.htm). All PDCs were thawed and cultured in Matrigel-coated flasks prepared with a working solution of 1X Ham's F-12 nutrient mix, without supplementation (Invitrogen, Waltham, MA, cat. 11765054), 100 U/mL penicillin-streptomycin (Invitrogen, cat. 15140122), and 2.5% Matrigel (Corning Inc., Corning, NY, cat. 354248) for the first three passages. The 354836-022-R-J1-PDC, 475296-252-R-J1-PDC, and 997726-040-R-J2-PDC lines were cultured in 6A media, which includes advanced DMEM/F-12 (Thermo Fisher Scientific, cat. 12634028), 10 mM HEPES (Thermo Fisher Scientific, cat. 15630080), 1X GlutaMAX supplement (Thermo Fisher Scientific, cat. 35050061), 0.1 mg/mL primocin (InvivoGen, San Diego, CA, cat. ant-pm-2), 10% defined fetal bovine serum, heat inactivated (HyClone Laboratories Inc., Logan, UT, cat. SH30070.03HI), 50% L-WRN conditioned media (ATCC, cat. CRL-3276), 1.25 mM N-Acetyl-L-cysteine (Sigma-Aldrich, cat. A9165), 10 mM nicotinamide (Sigma-Aldrich, cat. N0636), 1X B-27 supplement (Thermo Fisher Scientific, cat. 17504044), 1X N-2 supplement (Thermo Fisher Scientific, cat. 17502048), and 10 microM Y-27632 dihydrochloride (Tocris Bioscience, Bristol, United Kingdom, cat. 1254). The 624824-186-R-J2-PDC line was cultured in 6C/Colon 1B media, which includes all 6A media components plus 50 ng/mL human EGF recombinant protein (Thermo Fisher Scientific, cat. PHG0311). […]

[1] = curve of first compound, second compound 0.00316 µM
[2] = curve of first compound, second compound 0.01 µM
[3] = curve of first compound, second compound 0.0316 µM
[4] = curve of first compound, second compound 0.1 µM
[5] = curve of first compound, second compound 0.316 µM
[6] = curve of first compound, second compound 1 µM
[7] = second compound 0.00316 µM, first compound 0.0316 µM
[8] = second compound 0.00316 µM, first compound 0.1 µM
[9] = second compound 0.00316 µM, first compound 0.316 µM
[10] = second compound 0.00316 µM, first compound 1 µM
[11] = second compound 0.00316 µM, first compound 3.16 µM
[12] = second compound 0.00316 µM, first compound 10 µM
[13] = second compound 0.01 µM, first compound 0.0316 µM
[14] = second compound 0.01 µM, first compound 0.1 µM
[15] = second compound 0.01 µM, first compound 0.316 µM
[16] = second compound 0.01 µM, first compound 1 µM
[17] = second compound 0.01 µM, first compound 3.16 µM
[18] = second compound 0.01 µM, first compound 10 µM
[19] = second compound 0.0316 µM, first compound 0.0316 µM
[20] = second compound 0.0316 µM, first compound 0.1 µM
[21] = second compound 0.0316 µM, first compound 0.316 µM
[22] = second compound 0.0316 µM, first compound 1 µM
[23] = second compound 0.0316 µM, first compound 3.16 µM
[24] = second compound 0.0316 µM, first compound 10 µM
[25] = second compound 0.1 µM, first compound 0.0316 µM
[26] = second compound 0.1 µM, first compound 0.1 µM
[27] = second compound 0.1 µM, first compound 0.316 µM
[28] = second compound 0.1 µM, first compound 1 µM
[29] = second compound 0.1 µM, first compound 3.16 µM
[30] = second compound 0.1 µM, first compound 10 µM
[31] = second compound 0.316 µM, first compound 0.0316 µM
[32] = second compound 0.316 µM, first compound 0.1 µM
[33] = second compound 0.316 µM, first compound 0.316 µM
[34] = second compound 0.316 µM, first compound 1 µM
[35] = second compound 0.316 µM, first compound 3.16 µM
[36] = second compound 0.316 µM, first compound 10 µM
[37] = second compound 1 µM, first compound 0.0316 µM
[38] = second compound 1 µM, first compound 0.1 µM
[39] = second compound 1 µM, first compound 0.316 µM
[40] = second compound 1 µM, first compound 1 µM
[41] = second compound 1 µM, first compound 3.16 µM
[42] = second compound 1 µM, first compound 10 µM
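Further: spheroids exposed to compounds for seven days before viability reading.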
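Wherever viability, T/C is given: 100% = DMSO vehicle control viability.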

SMILES: C#Cc1c(F)ccc2cc(O)cc(-c3ncc4c(N5CC6CCC(C5)N6)nc(OCC56CCCN5CC(F)C6)nc4c3F)c12 (centres undefined) + CC(Nc1ncnc2nc[nH]c12)c1cc2cccc(Cl)c2c(=O)n1-c1ccccc1
- IC50 [3]: 0.0941 µM
- IC50 [4]: 0.0931 µM
- IC50 [5]: 0.0875 µM
- IC50 [6]: 0.0789 µM
- IC50 (curve of first compound, second compound 3.16 µM): 0.0529 µM
- IC50 (curve of first compound, second compound 10 µM): < 0.0316 µM
- viability, T/C [19]: 98.9%
- viability, T/C [20]: 47.3%
- viability, T/C [21]: 19.4%
- viability, T/C [22]: 11.3%
- viability, T/C [23]: 10.3%
- viability, T/C [24]: 9.72%
- viability, T/C [25]: 106%
- viability, T/C [26]: 46.3%
- viability, T/C [27]: 21.2%
- viability, T/C [28]: 13.3%
- viability, T/C [29]: 16.1%
- viability, T/C [30]: 8%
- viability, T/C [31]: 102%
- viability, T/C [32]: 41%
- viability, T/C [33]: 25.5%
- viability, T/C [34]: 20.3%
- viability, T/C [35]: 14.3%
- viability, T/C [36]: 11.2%
- viability, T/C [37]: 93.6%
- viability, T/C [38]: 38%
- viability, T/C [39]: 18%
- viability, T/C [40]: 19.6%
- viability, T/C [41]: 11%
- viability, T/C [42]: 6.62%
- viability, T/C (second compound 3.16 µM, first compound 0.0316 µM): 68.6%
- viability, T/C (second compound 3.16 µM, first compound 0.1 µM): 26.3%
- viability, T/C (second compound 3.16 µM, first compound 0.316 µM): 14.9%
- viability, T/C (second compound 3.16 µM, first compound 1 µM): 12.1%
- viability, T/C (second compound 3.16 µM, first compound 3.16 µM): 7.19%
- viability, T/C (second compound 3.16 µM, first compound 10 µM): 4.96%
- viability, T/C (second compound 10 µM, first compound 0.0316 µM): 31.9%
- viability, T/C (second compound 10 µM, first compound 0.1 µM): 12.6%
- viability, T/C (second compound 10 µM, first compound 0.316 µM): 8.73%
- viability, T/C (second compound 10 µM, first compound 1 µM): 6.7%
- viability, T/C (second compound 10 µM, first compound 3.16 µM): 4.26%
- viability, T/C (second compound 10 µM, first compound 10 µM): 4.02%

SMILES: Cn1ncnc1[C@H]1c2n[nH]c(=O)c3cc(F)cc(c23)N[C@@H]1c1ccc(F)cc1
- viability, T/C (compound 0.000316 µM): 97.7% [middle of 4 runs]
- viability, T/C (compound 0.001 µM): 94.7% [middle of 4 runs]
- viability, T/C (compound 0.00316 µM): 97.8% [middle of 4 runs]
- viability, T/C (compound 0.01 µM): 93% [middle of 4 runs]
- viability, T/C (compound 0.1 µM): 93.6% [middle of 4 runs]
- IC50 (curve of compound): > 0.1 µM

SMILES: C[C@@H](NC(=O)c1ncnc(N)c1Cl)c1ncc(C(=O)Nc2cc(C(F)(F)F)c(Cl)cn2)s1 + CC(Nc1ccc2c(c1)OCCn1cc(N3C(=O)OCC3C(F)F)nc1-2)C(N)=O
- IC50 [1]: > 10 µM
- IC50 [2]: > 10 µM
- IC50 [3]: > 10 µM
- IC50 [4]: 5.93 µM
- IC50 [5]: 1.85 µM
- IC50 [6]: 0.344 µM
- viability, T/C [7]: 83.2%
- viability, T/C [8]: 87.1%
- viability, T/C [9]: 93%
- viability, T/C [10]: 99.1%
- viability, T/C [11]: 113%
- viability, T/C [12]: 75.8%
- viability, T/C [13]: 103%
- viability, T/C [14]: 101%
- viability, T/C [15]: 96.2%
- viability, T/C [16]: 102%
- viability, T/C [17]: 108%
- viability, T/C [18]: 72.4%
- viability, T/C [19]: 98.6%
- viability, T/C [20]: 107%
- viability, T/C [21]: 101%
- viability, T/C [22]: 104%
- viability, T/C [23]: 93.7%
- viability, T/C [24]: 56.1%
- viability, T/C [25]: 97.4%
- viability, T/C [26]: 105%
- viability, T/C [27]: 96.4%
- viability, T/C [28]: 108%
- viability, T/C [29]: 72.8%
- viability, T/C [30]: 31.1%
- viability, T/C [31]: 85.9%
- viability, T/C [32]: 92.4%
- viability, T/C [33]: 87.3%
- viability, T/C [34]: 67.5%
- viability, T/C [35]: 34.4%
- viability, T/C [36]: 12.8%
- viability, T/C [37]: 56.2%
- viability, T/C [38]: 54.4%
- viability, T/C [39]: 51.4%
- viability, T/C [40]: 35.8%
- viability, T/C [41]: 13.7%
- viability, T/C [42]: 4.09%

Now from value to compound, other results behind:

- IC50 [1]: 4.74 µM
- IC50 [2]: 5.43 µM
- IC50 [3]: 5.34 µM
- IC50 [4]: 5.03 µM
- IC50 [5]: 4.57 µM
- IC50 [6]: 4.11 µM
SMILES: CCCS(=O)(=O)Nc1ccc(F)c(C(=O)c2c[nH]c3ncc(-c4ccc(Cl)cc4)cc23)c1F + CC(Nc1ccc2c(c1)OCCn1cc(N3C(=O)OCC3C(F)F)nc1-2)C(N)=O
- viability, T/C [7]: 108%
- viability, T/C [8]: 91.5%
- viability, T/C [9]: 92.4%
- viability, T/C [10]: 83.9%
- viability, T/C [11]: 77.4%
- viability, T/C [12]: 6.03%
- viability, T/C [13]: 118%
- viability, T/C [14]: 90.4%
- viability, T/C [15]: 83.8%
- viability, T/C [16]: 90.5%
- viability, T/C [17]: 89.9%
- viability, T/C [18]: 5.05%
- viability, T/C [19]: 112%
- viability, T/C [20]: 103%
- viability, T/C [21]: 102%
- viability, T/C [22]: 95.6%
- viability, T/C [23]: 88.7%
- viability, T/C [24]: 6.11%
- viability, T/C [25]: 101%
- viability, T/C [26]: 105%
- viability, T/C [27]: 118%
- viability, T/C [28]: 113%
- viability, T/C [29]: 81.2%
- viability, T/C [30]: 4%
- viability, T/C [31]: 81%
- viability, T/C [32]: 80.3%
- viability, T/C [33]: 87.1%
- viability, T/C [34]: 105%
- viability, T/C [35]: 71.5%
- viability, T/C [36]: 4.62%
- viability, T/C [37]: 59%
- viability, T/C [38]: 60.9%
- viability, T/C [39]: 70.4%
- viability, T/C [40]: 65.1%
- viability, T/C [41]: 63.2%
- viability, T/C [42]: 5.04%

- IC50 (compound alone, run of 05/09/2023): 51.4 nM [middle of 8 runs]
SMILES: COc1c(OCCCN2CCOCC2)ccc2c3n(c(=NC(=O)c4cnc(N)nc4)nc12)CCN3
- viability, T/C (compound 0.00316 µM): 98.7% [middle of 8 runs]
- viability, T/C (compound 0.01 µM): 97.8% [middle of 8 runs]
- viability, T/C (compound 0.0316 µM): 73.4% [middle of 8 runs]
- viability, T/C (compound 0.1 µM): 16.7% [middle of 8 runs]
- viability, T/C (compound 0.316 µM): 6.29% [middle of 8 runs]
- viability, T/C (compound 1 µM): 2.87% [middle of 8 runs]
